Source: US7635663B2, “Method for thinning fruit blossoms using eugenol” (The United States of America as represented by the …, priority 2006, dated 2009)
Where two headings read alike, the source gives them in different places.

Assays:
[1] = test system: apple trees (Malus domestica 'Ace Spur Red Delicious' on M.7 rootstock); assay type: in vivo; details: for Flowers without wilted pistils and stamens 24 hr after application / Fruit (1 to 2 cm in diameter) one month after application / Fruit (2 to 4 cm in diameter) two months after application: Apple; for Flowers without wilted pistils and stamens 24 hr after application: of 100 flower clusters, spring 2003; for Fruit (1 to 2 cm in diameter) one month after application / Fruit (2 to 4 cm in diameter) two months after application: same 100 flower clusters, five fruit each
Experimental: Eugenol was applied to apple trees (Malus domestica ‘Ace Spur Red Delicious’ on M.7 rootstock) on 23 Apr. 2003 when “king” blossoms had been fully opened and subtending flowers were just opening. Temperatures were 18° C. under partly sunny conditions. One-hundred five-cluster groups of flowers were evaluated for damage 24 hr after application. Surviving fruit from the original clusters were counted 1 and 2 mo after application. Apples were harvested on 17 Sep. 2003 from each treated tree. Total fruit number and weight and size of individual fruit were measured.

[2] = test system: 'Bisbee Spur Delicious' on MM.111 apple trees; experiment: Apple blossom thinning with eugenol and ATS, 2004; assay type: in vivo, Malus domestica; details: for Average fruit weight (g) / Total yield per tree (no.) / Flower burn back (% of flowers injured): Apple 'Bisbee'; for Average fruit weight (g) / Total yield per tree (no.) / Effect on yield: 2004; for Flower burn back (% of flowers injured): April 2004; for Effect on yield: Apple
Experimental: Each tree was an experimental unit, surrounded by buffer trees, with 4 single tree replications arranged in a completely randomized design.
Four branches per tree, each with 25 flowers, were measured; two branches opposite each other were perpendicular to the drive alley and the other two branches were opposite each other and parallel to the drive alley.

[3] = test system: 'Redhaven' on Lovell peach; experiment: Peach blossom thinning with different thinning agents, mist blower back pack sprayer, 2004; assay type: in vivo, Prunus persica
Experimental: In 2004, fewer concentrations of eugenol were tested in comparison with other chemical blossom thinners in apple and peach. […] 2004 with a pressurized power mist blower back pack sprayer. Peach trees had been planted in April 1997 with a 3-m spacing between trees. Treatments included eugenol and Matran® each applied at 1, 2, 4, and 8%. […] Each tree was an experimental unit, buffer trees surrounded each treated tree, and there were 5 replications arranged in a completely randomized design.
Response variables included (1) percent flowers wilted 24 hr after application based on a 100 flower (peach) or flower cluster (apple) sample per tree; (2) number apple fruit retained after June drop from the same 100-flower sample per tree; (3) number and weight of fruit per tree at harvest by size category; (4) visual estimation from two people of foliar and shoot damage. Four branches per tree, each with 25 flowers, were measured; two branches opposite each other were perpendicular to the drive alley and the other two branches were opposite each other and parallel to the drive alley.

[4] = test system: peach trees (Prunus persica L. 'Redhaven' on Lovell rootstock); assay type: in vivo; details: for Fruit (1 to 2 cm in diameter) one month after application / Fruit (2 to 4 cm in diameter) two months after application / Flowers without wilted pistils and stamens 24 hr after application: of 100 flowers; for Flowers without wilted pistils and stamens 24 hr after application: spring 2003
Experimental: Materials and methods: Initial work determined general foliar and blossom injury response to increasing rates of eugenol in apple and peach trees. Eugenol was prepared as a suspension in water and applied with a hand-held sprayer (Sure Shot, Milwaukee Sprayer Mfg. Co., Inc., Milwaukee, Wis.) to flowers to the point of drip. Spray was applied to peach trees (Prunus persica L. ‘Redhaven’ on Lovell rootstock) at 60 psi when air temperature was approximately 21° C. with sunny conditions. Naturally-derived eugenol, extracted from cinnamon (Cinnamomum zeylanicum) or clove (Syzgium aromaticum), was obtained from Citrus and Allied (Floral Park, N.Y.). Peach tree flowers were approximately 60% in bloom when eugenol was applied on 14 Apr. 2003. One tree received one application of each concentration of eugenol. One-hundred flowers per tree, uniformly distributed throughout the crown were selected for measurement 24 hr, 1 mo, and 2 mos after application. At 24 hr, flowers with wilted pistils and stamens were considered killed and nonviable. Surviving fruit were counted 1 and 2 mo after application. Peaches were harvested on 7 Aug. 2003 from each treated tree. Total fruit number and weight and size of individual fruit were measured.

[5] = test system: 'Gala' on M.26 apple trees; assay type: in vivo, Malus domestica; details: for Fruit (no./tree) / Fruit weight (kg/tree) / Individual fruit weight: Apple 'Gala'
Experimental: On Apr. […] Treatments were arranged in 4-tree plots and there were 4 blocks containing all 8 treatments. Data was collected from 2 trees per plot, so each treatment was an average of 8 trees. Data was analyzed by analysis of variance and Duncan's Multiple Range Test.

## C=CCc1ccc(O)c(OC)c1 [Eugenol, 2-methoxy-4-(2-propenyl)phenol]
[1]; Apple flowers, 2003
  Concentration at which flower injury was apparent: 1.5%
[1]; 0.5% active ingredient
  Flowers without wilted pistils and stamens 24 hr after application: 100%
  Fruit (1 to 2 cm in diameter) one month after application: 18%
  Fruit (2 to 4 cm in diameter) two months after application: 16%
[1]; 1% active ingredient
  Flowers without wilted pistils and stamens 24 hr after application: 100%
  Fruit (1 to 2 cm in diameter) one month after application: 9%
  Fruit (2 to 4 cm in diameter) two months after application: 17%
[1]; 1.5% active ingredient
  Flowers without wilted pistils and stamens 24 hr after application: 93%
  Fruit (1 to 2 cm in diameter) one month after application: 10%
  Fruit (2 to 4 cm in diameter) two months after application: 12%
[1]; 2% active ingredient
  Flowers without wilted pistils and stamens 24 hr after application: 93%
  Fruit (1 to 2 cm in diameter) one month after application: 10%
  Fruit (2 to 4 cm in diameter) two months after application: 10%
[1]; 4% active ingredient
  Flowers without wilted pistils and stamens 24 hr after application: 68%
  Fruit (1 to 2 cm in diameter) one month after application: 8%
  Fruit (2 to 4 cm in diameter) two months after application: 6%
[1]; 6% active ingredient
  Flowers without wilted pistils and stamens 24 hr after application: 43%
  Fruit (1 to 2 cm in diameter) one month after application: 1%
  Fruit (2 to 4 cm in diameter) two months after application: 2%
[1]; 8% active ingredient
  Flowers without wilted pistils and stamens 24 hr after application: 32%
  Fruit (1 to 2 cm in diameter) one month after application: 2%
  Fruit (2 to 4 cm in diameter) two months after application: 2%
[1]; 10% active ingredient
  Flowers without wilted pistils and stamens 24 hr after application: 27%
  Fruit (1 to 2 cm in diameter) one month after application: 1%
  Fruit (2 to 4 cm in diameter) two months after application: 0%
[1]; in vivo
  Fruit or leaf injury: no fruit or leaf injury
  Phytotoxicity by 2 months after application: no sign of eugenol-induced phytotoxicity
[2]; rate 2%
  Average fruit weight (g): 152 a g
  Total yield per tree (no.): 543 a no.
  Flower burn back (% of flowers injured): 45 a %
[2]; rate 4%
  Average fruit weight (g): 155 a g
  Total yield per tree (no.): 462 a no.
  Flower burn back (% of flowers injured): 50 a %
[2]; rate 6%
  Average fruit weight (g): 167 a g
  Total yield per tree (no.): 443 a no.
  Flower burn back (% of flowers injured): 53 a %
[2]
  Effect on yield: did not affect yield
[3]; 2004
  Rates at which fruit number was reduced: higher than 2%
[3]; rate 1%, 2004
  Average fruit weight (g): 76 cde g
  Total yield per tree (no.): 684 a no.
[3]; rate 1%, April 2004
  Flower burn back (% of flowers injured): 15 b^a %
[3]; rate 2%, 2004
  Average fruit weight (g): 87 bcde g
  Total yield per tree (no.): 384 bc no.
[3]; rate 2%, April 2004
  Flower burn back (% of flowers injured): 27 ab %
[3]; rate 2%, April 2004, listed as eugenol
  Flower burn back (% of flowers injured): 27%
[3]; rate 4%, 2004
  Average fruit weight (g): 103 abc g
  Total yield per tree (no.): 470 abc no.
[3]; rate 4%, April 2004
  Flower burn back (% of flowers injured): 39 ab %
[3]; rate 4%, April 2004, listed as eugenol
  Flower burn back (% of flowers injured): 49%
[3]; rate 8%, 2004
  Average fruit weight (g): 112 ab g
  Total yield per tree (no.): 404 bc no.
[3]; rate 8%, April 2004
  Flower burn back (% of flowers injured): 49 a %
[3]; rate 8%, April 2004, listed as eugenol
  Flower burn back (% of flowers injured): approximately 50%
[4]; Peach flowers, 2003
  Concentration at which flower injury was apparent: 1.5%
[4]; Peach, 0.5% active ingredient
  Fruit (1 to 2 cm in diameter) one month after application: 64%
  Fruit (2 to 4 cm in diameter) two months after application: 40%
  Flowers without wilted pistils and stamens 24 hr after application: 100%
[4]; Peach, 1% active ingredient
  Fruit (1 to 2 cm in diameter) one month after application: 28%
  Fruit (2 to 4 cm in diameter) two months after application: 16%
  Flowers without wilted pistils and stamens 24 hr after application: 100%
[4]; Peach, 1.5% active ingredient
  Fruit (1 to 2 cm in diameter) one month after application: 36%
  Fruit (2 to 4 cm in diameter) two months after application: 16%
  Flowers without wilted pistils and stamens 24 hr after application: 95%
[4]; Peach, 2% active ingredient
  Fruit (1 to 2 cm in diameter) one month after application: 20%
  Fruit (2 to 4 cm in diameter) two months after application: 6%
  Flowers without wilted pistils and stamens 24 hr after application: 85%
[4]; Peach, 4% active ingredient
  Fruit (1 to 2 cm in diameter) one month after application: 20%
  Fruit (2 to 4 cm in diameter) two months after application: 5%
  Flowers without wilted pistils and stamens 24 hr after application: 62%
[4]; Peach, 6% active ingredient
  Fruit (1 to 2 cm in diameter) one month after application: 22%
  Fruit (2 to 4 cm in diameter) two months after application: 5%
  Flowers without wilted pistils and stamens 24 hr after application: 50%
[4]; Peach, 8% active ingredient
  Fruit (1 to 2 cm in diameter) one month after application: 17%
  Fruit (2 to 4 cm in diameter) two months after application: 3%
  Flowers without wilted pistils and stamens 24 hr after application: 39%
[4]; Peach, 10% active ingredient
  Fruit (1 to 2 cm in diameter) one month after application: 0%
  Fruit (2 to 4 cm in diameter) two months after application: 5%
  Flowers without wilted pistils and stamens 24 hr after application: 31%
[4]; Peach, 2003
  Time after application until peach flowers began to appear bleached and leaf tips developed necrotic lesions: ≤ 1 h
[4]; in vivo
  Fruit or leaf injury: No fruit or leaf injury
  Phytotoxicity by 2 months after application: no sign of eugenol-induced phytotoxicity
[5]; thinner applied at 4%, 2005
  Fruit (no./tree): 137 no./tree
  Fruit weight (kg/tree): 20.5 kg/tree
  Individual fruit weight: 148 g
[5]; thinner applied at 6%, 2005
  Fruit (no./tree): 86 no./tree
  Fruit weight (kg/tree): 10.2 kg/tree
  Individual fruit weight: 129 g
[5]; in vivo
  Leaf injury: injury was superficial, did not persist, and was not observed within four weeks of application

## ammonium thiosulfate [ATS, reference compound]
[2]; applied at 3.5 gal/A
  Average fruit weight (g): 153 a g
  Total yield per tree (no.): 570 a no.
  Flower burn back (% of flowers injured): 50 a %
[2]
  Effect on yield: did not affect yield
[3]; 2004
  Fruit number per peach tree compared with control: reduced
[3]; applied at 5.25 gal/A, 2004
  Average fruit weight (g): 125 a g
  Total yield per tree (no.): 345 c no.
[5]; thinner applied at 2%, 2005
  Fruit (no./tree): 789 no./tree
  Fruit weight (kg/tree): 83.3 kg/tree
  Individual fruit weight: 109 g
[5]; thinner applied at 4%, 2005
  Fruit (no./tree): 706 no./tree
  Fruit weight (kg/tree): 79.8 kg/tree
  Individual fruit weight: 120 g
[5]; Apple, 2005
  Performance as thinner: not a good thinner
